“Also recorded” adds a separate entry of the source.
System: latent LTR-GFP construct in J-Lat A72 cells
Test: J-Lat A72 cells (LTR-GFP lacking Tat), flow cytometry of GFP
Assay type: cell-based, HIV-1
Protocol: HEK293T and Jurkat cells were obtained from the American Type Culture Collection. J-Lat (clones A2 and A72) cell lines were described. HEK293T cells were cultured in DMEM supplemented with 10% FBS, 1% L-glutamine and 1% penicillin-streptomycin (Life Technologies). Jurkat and J-Lat cells were cultured in RPMI supplemented with 10% FBS, 1% L-glutamine, and 1% penicillin-streptomycin. TNFα (Sigma-Aldrich) was used at concentrations of 0.25 or 1 ng/ml. Human αCD3 and αCD28 (BD Biosciences) were used at concentrations of 3 and 1 μg/ml, respectively. Prostratin (Sigma) was used at a suboptimal concentration of 0.5 μM, and SAHA (NCI Chemical Carcinogen Repository, Midwest Research Institute) was used at 2.5 μM.
To determine if BET inhibition specifically activates Tat-dependent transcription, a J-Lat cell line was utilized that harbored a latent lentiviral construct expressing Tat with GFP from the HIV LTR (clone A2; LTR-Tat-IRES-GFP). […] Stimulation with JQ1 yielded up to ninefold more GFP-expressing cells than control-treated cells, and a 22-fold increase was observed when cells were co-treated with JQ1 and low doses of TNFα (FIG. 21A). […] Here, an up to 22-fold increase in GFP^+ cells resulted from JQ1 treatment alone and a 45-fold increase when TNFα was added with JQ1 (FIG. 21B). Both cell lines were also treated with prostratin and SAHA (FIG. 27).
Two latent J-Lat cell lines A2 (containing a LTR-Tat-IRES-GFP construct) or A72 (containing a LTR-GFP construct) were treated with JQ1 or (R)-JQ1 in combination with TNFα or control at the indicated concentrations for 18 h, followed by flow cytometry analysis. […] Data represent average (±SD) of three independent experiments. All treatments in (A) and (B) on the X axis are in μM.

Compound: Cc1sc2c(c1C)C(c1ccc(Cl)cc1)=N[C@@H](CC(=O)OC(C)(C)C)c1nnc(C)n1-2 [JQ1, tert-Butyl 2-((6S)-4-(4-chlorophenyl)-2,3,9-trimethyl-6H-thieno[3,2-f][1,2,4]triazolo[4,3-a][1,4]diazepin-6-yl)acetate]
- activation of HIV transcription (GFP) (18 h): increased GFP expression; also recorded: reactivated HIV-1 in a dose-dependent manner
- effect of adding SAHA to JQ1 (FIG. 27): only a very modest increase
- effect of adding prostratin to JQ1 (FIG. 27): enhanced the JQ1 effect
- increase in GFP+ cells (JQ1 alone): up to 22 fold
- increase in GFP+ cells (TNFα added with JQ1): 45 fold

— patent US20150133434A1, “Compositions and Methods for Reactivating Latent Immunodeficiency Virus” (priority 2012, published 2015)
